pKd: −log10 of the molar value.

The nature of data set [1]: Cation induced 19F NMR chemical shift, sodium. The format is binding. Details: key: fast exchange; slow exchange. To be noted: 37° C. As to the method:
(§1) NMR titrations: Nmr spectra were recorded on Bruker WH 200 or Am 400 spectrometers at 188 or 376 MHz respectively at chelator concentrations between 5 and 10 mM in the same buffer as for fluorescence titrations but containing 20% D2 O at 37° C. The spectra were obtained with an acquisition time of 1.0 sec. and a 90° pulse and were processed with resolution enhancement (-0.5 of the observed line width) and appropriate gaussian sensitivity enhancement. The proportion of M^n+ -chelator complex was calculated from the integrals of the resolved free and bound chelator ^19 F resonances, or from the chemical shift of complexes in fast exchange. The apparent affinities were determined graphically as for the fluorescence data, but using a two step iteration from the affinity derived from the fluorescence data when the dissociation constant was close to the chelator concentration in the nmr titrations.

Data set [2] can be described thus: Cation binding titration, sodium (fluorescence and 19F NMR titrations). To be noted: for Cation Binding Constant (log k), Na+: 37° C. As for the experimental part: (§2) Fluorescence titrations: Ionic titrations of chelator fluorescence were performed on a Perkin Elmer 44E spectrofluorometer at a chelator concentration of 10 μM in 100 mM tris/acetic acid buffer at 37° C. Fluorescence emission from all of the chelators was monitored at a constant wavelength between 370 and 390 nm. The excitation spectra from 210 to 350 nm were recorded in the ratio mode and the proportion of M^n+ chelator complex was calculated from the fluorescence intensities at the most sensitive excitation wavelengths. The binding constants were estimated graphically from plots of log (bound/free) chelator against log free [M^n+ ]. (Slopes were 1.00±<0.05).
as §1

Data set [3] in a line: Cation induced 19F NMR chemical shift, potassium. The data set is classed as binding. Set-up: key: fast exchange; slow exchange. Conditions: 37° C. As for the experimental part: as §1
Data set [4] can be described thus: Cation binding titration, potassium (fluorescence and 19F NMR titrations). Conditions: 37° C.; from NMR. As for the experimental part:
as §2
as §1, with “The spectra were obtained with an acquisition time of 1.0 sec. and a 90° pulse and were processed with resolution enhancement (-0.5 of the observed line width) and appropriate gaussian sensitivity enhancement.” left out

Data set [5] is classed as binding. To be noted: tris/acetic acid buffer. As to the method:
as §2

The subject of another data set is Lymphocytes. The data set is described as follows: Intracellular sodium by 19F NMR in pig mesenteric lymph node lymphocytes. The data set is classed as cell-based. As to the method:
(§3) Lymphocytes (1 ml packed cells) were prepared from pig mesenteric lymphnodes by standard procedure in RPM1 medium. The cells suspended in RPM1 (200 ml) were treated with the tetra-acetoxymethyl ester of Example 3 (4.5 mg) in DMSO (100 μl) and incubated at 37° C. for 1 hour. The cells were isolated by centrifugation and suspended in RPM1 (20 ml) in the spectrometer probe, with continuous dialysis against oxygenated medium and the data collected. The signal appeared after 3 hours and was collected for a further 3 hours.

Another data set deals with cellular function. The data set is classed as cell-based. As to the method:
as §3

A short description of data set [6]: Selectivity for sodium ions over potassium (and other) ions. The format is binding.

For the compound `O=C(O)CN(CC(=O)O)c1ccc2c(c1)OCCN1CCOCCN(CCO2)c2ccc(F)cc2OCCOc2cc(F)ccc21` [Compound 7a], in data set [1], the “Exchange (fast/slow), Na+” value is recorded as “s”. Moreover, the “Cation Binding Constant (log k), Na+” value in data set [2] (from NMR) was 6. The “Exchange (fast/slow), K+” value in data set [3] is “f”. Besides, the “Cation Binding Constant (log k), K+” value in data set [4] turned out to be 2.3.

With `O=C(O)CN(CC(=O)O)c1cccc(N2CCN3CCOc4ccc(N(CC(=O)O)CC(=O)O)cc4OCCN(CC2)c2ccc(F)cc2OCCOc2cc(F)ccc23)c1` [Compound 7d], in data set [1], the “Exchange (fast/slow), Na+” value is “f”. In addition, in data set [2] (from NMR and from fluorescence at 370 nm), the “Cation Binding Constant (log k), Na+” value was 1.6. In addition, the “Cation Binding Constant (log k), H+” value in data set [5] is given as 7.0.

For the compound `CC(=O)OCOC(=O)CN(CC(=O)OCOC(C)=O)c1cccc(N2CCN3CCOc4cc(C(C)=O)c(N(CC(=O)OCOC(C)=O)CC(=O)OCOC(C)=O)cc4OCCN(CC2)c2ccc(F)cc2OCCOc2cc(F)ccc23)c1` [Example 3], the “19F chemical shift downfield from the standard” value in the data set on Lymphocytes (37° C., standard 1,2-bis (2-amino-5-fluorophenoxy) ethane-N,N,N',N'-tetracetic acid) stood at 5.99 ppm. Further, the “intracellular sodium ion concentration indicated” value with Lymphocytes (from 19F chemical shift) is “about 13 mM”. Further, in data set [2] (read-out: dissociation constant of the sodium complex), the pKd was 1.40. The “adverse effect on cellular function” value with cellular function is reported as “has not shown any adverse effect on cellular function”. Moreover, the “selectivity for sodium ions (in words)” value in data set [6] is “high selectivity for sodium over all other ions and in particular over potassium”.

For the compound `CC(=O)c1cc2c(cc1N(CC(=O)O)CC(=O)O)OCCN1CCN(c3cccc(N(CC(=O)O)CC(=O)O)c3)CCN(CCO2)c2ccc(F)cc2OCCOc2cc(F)ccc21` [Compound 8d], in data set [1], the “Exchange (fast/slow), Na+” value is “f”. Moreover, the “Cation Binding Constant (log k), Na+” value in data set [2] (from NMR) is given as 1.3.
